We go through 4 substances from patent US20100190723A1, “PREVENTIVE OR THERAPEUTIC COMPOSITION FOR LIVER DISEASE” (priority 2007, published 2010).

Experiment [1] deals with Hepatic Disorder Rat Model. Put plainly: Administration test using hepatic disorder rat model (D-galactosamine), oral peptide (Test Example 2). Format: in vivo. To be noted: peptide 40 mg/kg orally, Wistar rats; for GOT: blood GOT level 24 hours after D-galactosamine 800 mg/kg i.p., water control 2180; for GPT: blood GPT level 24 hours after D-galactosamine 800 mg/kg i.p., water control 391. As for the experimental part:
(§1) Wistar rats (4- to 5-week old) were used for the experiment. Rats were preliminarily fed for a week with purified standard feeds and subjected to fasting for 4 hours. pyroGlu-Leu obtained in Production Example 2 and pyroGlu-Ile obtained in Production Example 3 were each dissolved in water at 10 mg/l ml, and the resulting solutions were administered intraperitoneally in amounts of 20 mg/kg each. D-galactosamine (Sigma) was administered intraperitoneally in an amount of 800 mg/kg 1 hour later. Rats were allowed to freely eat 4 hours after D-galactosamine administration. Each group consisted of 5 rats, and water was administered to the control group instead of the peptide of the present invention.
(§2) Blood was sampled from the rats 24 hours after D-galactosamine administration, and GOT and GPT levels in the blood were assayed to compare the degrees of hepatic disorders.
(§3) GOT and GPT levels were assayed in accordance with the JSCC standardization method (Hiroshi Miura, Japanese Journal of Clinical Medicine (Nippon Rinsho), 53-reprinted-266, 1995).
The test was carried out in the same manner as in Test Example 1. pyroGlu-Gln-Gln, pyroGlu-Gln, pyroGlu-Leu, or pyroGlu-Ile obtained in Production Example 5 was dissolved in water at 10 mg/l ml, and the resulting solution was administered orally to rats in amounts of 40 mg/kg.

Experiment [2] has as its system Hepatic Disorder Rat Model. Put plainly: Administration test using hepatic disorder rat model (D-galactosamine), intraperitoneal peptide (Test Example 1). Format: in vivo. To be noted: peptide 20 mg/kg intraperitoneally 1 hour before, Wistar rats; for GOT: blood GOT level 24 hours after D-galactosamine 800 mg/kg i.p., water control 391; for GPT: blood GPT level 24 hours after D-galactosamine 800 mg/kg i.p., water control 50. As for the experimental part:
as §1, §2, §3

Square brackets hold non-standard residues; d marks the D form. Ends that are not written are not given here. pGlu = O=C1CC[C@@H](C(=O)O)N1

In experiment [1], [pGlu]-Gln yielded a GOT of 509 IU/L and a GPT of 124 IU/L.

For the substance [pGlu]-Gln-Gln, in experiment [1], the GOT turned out to be 524 IU/L and the GPT came to 100 IU/L.

Regarding [pGlu]-Ile, the GOT worked out at 314 IU/L in experiment [2] and 491 IU/L in experiment [1]. For the same substance, the GPT in experiment [2] is listed as 45 IU/L; in experiment [1] it was 98 IU/L.

In experiment [2], [pGlu]-Leu gave a GOT of 215 IU/L and a GPT of 30 IU/L. In experiment [1], the GOT was 555 IU/L and the GPT turned out to be 131 IU/L.
